In patent publication US9693556B2, “Herbicidal pyridazinone derivatives” (SYNGENTA LIMITED, priority 2011, dated 2017):

Legend:
Format in all cases: in vivo
[1] = system: Alopecurus myosuroides (ALOMY); assay: Pre-emergence herbicidal glasshouse test on Alopecurus myosuroides; settings: pre-emergence; 1000 g/h; evaluated after 13 days
Outline: (§1)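 Steps: sow seeds in standard soil; cultivate 1 d (pre-) or 8 d (post-emergence) at 24/16 °C, 14 h light, 65% humidity; spray 1000 g/h in acetone/water plus Tween 20; grow on, watering twice daily; score percentage damage after 13 d.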

Setaria faberi (SETFA) [2] = assay: Pre-emergence herbicidal glasshouse test on Setaria faberi; settings: pre-emergence; 1000 g/h; evaluated after 13 days
Outline: as §1

[3] = system: Echinochloa crus-galli (ECHCG); assay: Pre-emergence herbicidal glasshouse test on Echinochloa crus-galli; settings: pre-emergence; 1000 g/h; evaluated after 13 days
Outline: as §1

Solanum nigrum (SOLNI) [4] = assay: Pre-emergence herbicidal glasshouse test on Solanum nigrum; settings: pre-emergence; 1000 g/h; evaluated after 13 days
Outline: as §1

[5] = system: Amaranthus retoflexus (AMARE); assay: Pre-emergence herbicidal glasshouse test on Amaranthus retoflexus; settings: pre-emergence; 1000 g/h; evaluated after 13 days
Outline: as §1

[6] = system: Ipomoea hederacea (IPOHE); assay: Pre-emergence herbicidal glasshouse test on Ipomoea hederacea; settings: pre-emergence; 1000 g/h; evaluated after 13 days
Outline: as §1

[7] = system: Alopecurus myosuroides (ALOMY); assay: Post-emergence herbicidal glasshouse test on Alopecurus myosuroides; settings: post-emergence; 1000 g/h; evaluated after 13 days
Outline: as §1

Setaria faberi (SETFA) [8] = assay: Post-emergence herbicidal glasshouse test on Setaria faberi; settings: post-emergence; 1000 g/h; evaluated after 13 days
Outline: as §1

[9] = system: Echinochloa crus-galli (ECHCG); assay: Post-emergence herbicidal glasshouse test on Echinochloa crus-galli; settings: post-emergence; 1000 g/h; evaluated after 13 days
Outline: as §1

Solanum nigrum (SOLNI) [10] = assay: Post-emergence herbicidal glasshouse test on Solanum nigrum; settings: post-emergence; 1000 g/h; evaluated after 13 days
Outline: as §1

[11] = system: Amaranthus retoflexus (AMARE); assay: Post-emergence herbicidal glasshouse test on Amaranthus retoflexus; settings: post-emergence; 1000 g/h; evaluated after 13 days
Outline: as §1

[12] = system: Ipomoea hederacea (IPOHE); assay: Post-emergence herbicidal glasshouse test on Ipomoea hederacea; settings: post-emergence; 1000 g/h; evaluated after 13 days
Outline: as §1

Structure (SMILES)	PRE Application ALOMY herbicidal damage (five point scale) [1]	PRE Application SETFA herbicidal damage (five point scale) (Setaria faberi (SETFA) [2])	PRE Application ECHCG herbicidal damage (five point scale) [3]	PRE Application SOLNI herbicidal damage (five point scale) (Solanum nigrum (SOLNI) [4])	PRE Application AMARE herbicidal damage (five point scale) [5]	PRE Application IPOHE herbicidal damage (five point scale) [6]	POST Application ALOMY herbicidal damage (five point scale) [7]	POST Application SETFA herbicidal damage (five point scale) (Setaria faberi (SETFA) [8])	POST Application ECHCG herbicidal damage (five point scale) [9]	POST Application SOLNI herbicidal damage (five point scale) (Solanum nigrum (SOLNI) [10])	POST Application AMARE herbicidal damage (five point scale) [11]	POST Application IPOHE herbicidal damage (five point scale) [12]
Cn1ncc(-n2ccc(C(F)(F)F)c(-c3ccc(C(F)(F)F)nc3)c2=O)c(O)c1=O [Compound 7.010]	5 (5=80-100% damage)	5 (5=80-100% damage)	5 (5=80-100% damage)	5 (5=80-100% damage)	5 (5=80-100% damage)	5 (5=80-100% damage)	5 (5=80-100% damage)	5 (5=80-100% damage)	5 (5=80-100% damage)	5 (5=80-100% damage)	5 (5=80-100% damage)	5 (5=80-100% damage)
COc1ccc(Cn2ncc(-c3ccc(S(C)(=O)=O)c(C4=NOCC4)c3C)c(O)c2=O)cc1 [Compound 1.002]	1 (1=0-19% damage)	1 (1=0-19% damage)	1 (1=0-19% damage)	1 (1=0-19% damage)	1 (1=0-19% damage)	1 (1=0-19% damage)	1 (1=0-19% damage)	1 (1=0-19% damage)	1 (1=0-19% damage)	5 (5=80-100% damage)	3 (3=40-59% damage)	2 (2=20-39% damage)
CCCS(=O)(=O)Oc1c(-c2ccc(C(F)(F)F)cc2S(C)(=O)=O)cnn(C)c1=O [Compound 3.005, [2-methyl-5-[2-methylsulfonyl-4-(trifluoromethyl)phenyl]-3-oxo-pyridazin-4-yl]propane-1-sulfonate]	5 (5=80-100% damage)	5 (5=80-100% damage)	5 (5=80-100% damage)	5 (5=80-100% damage)	5 (5=80-100% damage)	4 (4=60-79% damage)	5 (5=80-100% damage)	5 (5=80-100% damage)	5 (5=80-100% damage)	5 (5=80-100% damage)	5 (5=80-100% damage)	5 (5=80-100% damage)
Cc1c(-c2c(C(C)C)nn(C)c(=O)c2O)ccc(S(C)(=O)=O)c1C1=NOCC1 [Compound 2.024]	5 (5=80-100% damage)	4 (4=60-79% damage)	5 (5=80-100% damage)	4 (4=60-79% damage)	5 (5=80-100% damage)	4 (4=60-79% damage)	5 (5=80-100% damage)	5 (5=80-100% damage)	5 (5=80-100% damage)	5 (5=80-100% damage)	5 (5=80-100% damage)	5 (5=80-100% damage)
Cn1ncc(-c2ccc(S(C)(=O)=O)c(COCC(F)(F)F)c2Cl)c(O)c1=O [Compound 1.049]	2 (2=20-39% damage)	3 (3=40-59% damage)	5 (5=80-100% damage)	5 (5=80-100% damage)	5 (5=80-100% damage)	1 (1=0-19% damage)	5 (5=80-100% damage)	5 (5=80-100% damage)	5 (5=80-100% damage)	5 (5=80-100% damage)	5 (5=80-100% damage)	5 (5=80-100% damage)
